Experimental data as given in PubChem BioAssay (NCI).
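In this assay, cells in 96-well plates receive the compound at five concentrations for 48 hours. Endpoints are linearly interpolated between the surrounding concentrations. Here, GI50 denotes the concentration required for 50% inhibition of growth. Definition used: TGI = concentration required for complete inhibition of growth.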

What was measured:
Assay in all cases: growth of human tumour cells (NCI), 48 h
NCI-H460 lung = system: NCI-H460 lung
OVCAR-3 ovarian = system: OVCAR-3 ovarian
CAKI-1 renal = system: CAKI-1 renal
T-47D breast = system: T-47D breast
HS 578T breast = system: HS 578T breast
OVCAR-8 ovarian = system: OVCAR-8 ovarian
SW-620 colon = system: SW-620 colon
ACHN renal = system: ACHN renal
OVCAR-4 ovarian = system: OVCAR-4 ovarian
TK-10 renal = system: TK-10 renal

Row | Compound | GI50 (NCI-H460 lung) [µM] | TGI (NCI-H460 lung) [µM] | GI50 (OVCAR-3 ovarian) [µM] | TGI (OVCAR-3 ovarian) [µM] | GI50 (CAKI-1 renal) [µM] | TGI (CAKI-1 renal) [µM] | GI50 (T-47D breast) [µM] | TGI (T-47D breast) [µM] | GI50 (HS 578T breast) [µM] | TGI (HS 578T breast) [µM] | GI50 (OVCAR-8 ovarian) [µM] | TGI (OVCAR-8 ovarian) [µM] | GI50 (SW-620 colon) [µM] | TGI (SW-620 colon) [µM] | GI50 (ACHN renal) [µM] | TGI (ACHN renal) [µM] | GI50 (OVCAR-4 ovarian) [µM] | TGI (OVCAR-4 ovarian) [µM] | GI50 (TK-10 renal) [µM] | TGI (TK-10 renal) [µM]
1 | NC(=O)c1ncn(C2OC(CO)C(O)C2O)c1N (centres undefined) | > 100 | > 100 | > 100 | > 100 | > 100 | > 100 | > 100 | > 100 | > 100 | > 100 | 62.2 | > 100 | > 100 | > 100 | > 100 | > 100 | > 100 | > 100 | > 100 | > 100
2 | O=C(OC[C@@H]1CO1)c1cccc2c(=O)c3ccccc3[nH]c12 | 0.38 | 1.75 | 0.276 | 1.14 | 0.2 | 0.687 | 0.89 | 5.55 | 0.499 | 3.78 | 0.166 | 2.78 | 0.0649 | 1.16 | 0.107 | 0.305 | 0.671 | 4.72 | 0.646 | 
3 | C=C(Cn1c2ccccc2c(=O)c2ccccc21)c1ccc(C(=O)Nc2ccccc2N)cc1 | 4.72 | > 100 | 6.5 | > 100 | > 26 | > 100 | 2.8 | > 80 | > 100 | > 100 | > 100 | > 100 | 6.56 | > 100 | > 100 | > 100 | 0.0786 | 6.06 | > 28.9 | > 100
4 | COc1ccc(/C=C/C(C)=N/OCC(=O)Nc2ccc(Cl)cc2)cc1 | 3.1 | 16.7 | 3.03 | 15 | 2.29 | 27 | 1.63 | 24.8 | 5.85 | 78.5 | 3.52 | 29.5 | 3.13 | 20.1 | 1.94 | > 38.9 | 1.97 | 9.96 | 7.74 | 38.9
5 | O=c1[nH]c2ccc([N+](=O)[O-])c(Cl)c2c2ccccc12 |  | 4.47 |  | 17.6 |  | 13.2 |  | 73.7 |  | > 100 |  | 3.56 |  | 17.9 |  | 18.9 |  | 24.7 |  | 11.3
6 | O=C(N/N=C/c1ccc(F)cc1)c1ccc(C(F)(F)F)nc1Nc1cccc(C(F)(F)F)c1 | 1.29 | 3.08 | 0.254 | 0.713 | 0.34 | 2.32 | 1.02 | 4.39 | 1.73 | 6.87 | 1.7 | 6.62 | 0.959 | 8.44 | 1.66 | 4.04 | 0.339 | 6.55 | 0.582 | 3.86
